Measurements as given in PMC9050848, “Carbamoyl-N-aryl-imine-urea: a new framework to obtain a putative leishmanicidal drug-candidate” (RSC Advances, 2020).
Read-outs that look alike come from different tables or passages of the source.

Key:
[1] = tested on: J774.A1 cell lines (macrophages); assay: Cytotoxicity against J774.A1 macrophages, MTT assay; assay type: cell-based, murine (BALB/c); settings: Mus musculus, read-out: IC50 (concentration required to give 50% death of cells)
Experimental: Initially the cytotoxic profile of compounds 9a–e and 10a–e against J774.A1 cell lines (i.e., BALB/c macrophage cell lines) was investigated. Therefore, these cells were exposed to different concentrations (0.1–100 μM) of compounds 9a–e and 10a–e and the cytotoxic effect was measured after 48 h of drug incubation, by using MTT-based assay. The cytotoxicity was expressed as IC50 values (that means the concentration of a drug that kills half of the tested cells in culture). As depicted in Table 1, most compounds have shown low cytotoxic activity with IC50 > 100 μM.
These adherent-phenotype macrophage lines were cultured in Dulbecco's Modified Eagle's medium (DMEM, Sigma) supplemented with 10% FBS at 37 °C with 95% humidity and 5% CO2.
To evaluate the cytotoxic activity against the J774.A1 cell line, the host cells were plated in 96-well cell culture plate (flat bottom, clear, Corning) at 2 × 10^5 cells per well in complete culture medium 10% FBS at 37 °C. After 1 h wells were washed with warm Hank's Balanced Salt solution (HBSS) to remove non-adherent cells, leaving approximately 10^5 adherent macrophages. All cultures were done in DMEM complete supplemented with 10% FBS. The compounds and pentamidine were added at serial concentrations (0.1–100 μM). The cells were also cultured with medium free from compounds or vehicle (basal growth control) or in media with DMSO 0.1% (vehicle control). Positive control (dead cells) was obtained by cellular lysis with 1% of Triton 100× in DMEM complete (because it is a detergent in this concentration, Triton 100× destabilizes the cell membrane of macrophages, causing cell death). The cytotoxicity was evaluated by the MTT assay.[31] This assay consists of indirectly measuring cell viability through the mitochondrial enzymatic activity of macrophages. Viable cells are capable of reducing MTT to formazan. For this, after the incubation of plate for 48 h, 100 μL of MTT solution (0.5 mg mL^−1, in DMEM medium) was added per well, and the plate was incubated for 1 h. Then, the supernatant of each well was retired and was added 150 μL of DMSO. The absorbance was determined at 570 nm in a microplate reader. The cell viability of the cultures treated with the compounds was compared to the death pattern obtained in the control cultures. In the positive control, the cell death was confirmed when the optical density was equal to zero, confirming that the cells were not viable. Data obtained from experiments were expressed as the mean ± standard error of the mean (mean ± S.E.M.) and statistical differences between the treated and the vehicle groups of experiments were evaluated by ANOVA and Dunnett hoc tests.

[2] = tested on: L. braziliensis intracellular amastigotes; assay: Leishmanicidal activity against intracellular amastigote forms of L. braziliensis in J774.A1 macrophages; assay type: cell-based; settings: Leishmania braziliensis; for IC50: read-out: IC50 (concentration required to give 50% death of parasites); for Emax: maximum toxicity vs 0.1% DMSO group, read-out: Maximum effect (% ± S.E.M.)
Text: Further, the leishmanicidal activity against intracellular amastigotes forms of L. braziliensis were also investigated (Table 2).
(§1) Promastigotes of L. amazonensis (MHOM/BR/77/LTB0016) were obtained from Dr Eduardo Caio Torres dos Santos at Oswaldo Cruz Institute – Fiocruz. Promastigotes of L. braziliensis (MHOM/BR/01/BA788) were obtained from Dr Valéria de Matos Borges at Gonçalo Moniz Research Center – Fiocruz. The parasites were maintained in vitro in Schneider's medium, supplemented with 10% FBS and 2% human urine at 27 °C in BOD incubator.
(§2) Initially, compounds 9a–e and 10a–e were evaluated at screening concentration of 30 μM against L. amazonensis, using DMSO 0.03% as vehicle control, since this was the DMSO concentration (vehicle) remaining in each well with the tested compounds. […] Vehicle control used was DMSO 0.1%, since this was the concentration of DMSO (vehicle) existing in each well with the tested substances in the highest concentration used.
(§3) To assess the activity of the test derivatives against the amastigote stage of L. amazonensis and L. braziliensis the model of infection in coverglass was realized.[31] The murine macrophages (J774.A1 cell line) were prepared in 24-well cell culture plate (flat bottom, clear, Corning) at 2 × 10^5 adherent cells per well, infected with 2 × 10^6 promastigotes in glass coverslips placed inside 1 mL medium culture. The cultures were cultured or not with the test derivatives or reference drugs, and kept for 24 h at 37 °C, 5% CO2. After 24 h of incubation, the coverslips were washed, stained with Giemsa–May–Grünwald, and intracellular amastigotes were counted in 100 macrophages, using an optical microscope, on the objective of 100×. Thus, during the counting of 100 macrophages, the amount of amastigotes present within these defence cells was also determined. Data obtained from in vitro experiments were expressed as the mean ± S.E.M. of duplicate cultures of representative assays. Statistical differences between the treated and the control groups were evaluated by ANOVA and Dunnett hoc tests. Differences with a p value < 0.05 or lower were considered significant.

[3] = tested on: L. amazonensis intracellular amastigotes; assay: Leishmanicidal activity against intracellular amastigote forms of L. amazonensis in J774.A1 macrophages; assay type: cell-based; settings: for Effect on the number of intracellular amastigotes: L. amazonensis, screening concentration 30 μM; for IC50 / Emax: Leishmania amazonensis; for IC50: read-out: IC50 (concentration required to give 50% death of parasites); for Emax: maximum toxicity vs 0.1% DMSO group, read-out: Maximum effect (% ± S.E.M.)
Experimental: Considering that L. amazonensis is one of the causative species of cutaneous leishmaniasis in Brazil,[20] we have investigated the leishmanicidal effect of compounds 9a–e and 10a–e against L. amazonensis amastigotes forms. Initially, all compounds were evaluated at 30 μM. […] Then, they were selected to determine their IC50 value for intracellular amastigote forms of L. amazonensis.
as §1, §2, §3

L. amazonensis = assay: Murine model of cutaneous leishmaniasis induced by L. amazonensis (efficacy); assay type: in vivo, BALB/c mice; settings: 30 μmol per kg per day × 28 days
Experimental: So, BALB/c mice infected with L. amazonensis were treated during 28 days with compound 10e (30 μmol per kg per day, i.p.) or with the standards miltefosine (30 μmol per kg per day, p.o.) and meglumine antimoniate (30 μmol per kg per day, i.p.).
(§4) This study (protocol number 2013.02) was approved by the Ethics Committee for Animal Experimentation of the Federal University of Alagoas (Brazil). All animals received humane care in compliance with the ‘Principles of laboratory animal care’ formulated by the National Society for Medical Research and the ‘Guide for the care and use of laboratory animals’ prepared by the National Academy of Sciences (Washington, DC). Then, 1 × 10^5 stationary promastigotes (5 days of culture in Schneider's medium) of L. amazonensis were inoculated subcutaneously into the right ear dermis of 6 week-old female BALB/c mice weighing ca. 20 g. and later treated with 10e (i.p.), miltefosine (p.o.) or meglumine antimoniate (i.p.) at 30 μmol kg^−1 × 28 days. The vehicle to solubilize 10e (LASSBio-1736) and standard drugs was Tween 20 (50 μL) and sterile water for injection, which was also administrated by i.p. route in two controls groups (non-infected control and infected control). The lesion size was measured using a paquimeter.[32] The parasite loads of infected ears and draining lymph nodes were determined using a quantitative limiting-dilution assay.[33] Toxicity was also evaluated due to alterations on spleen weight and by biochemistry dosages in plasma, performed according to the manufacturer's instructions (Doles, BRA). Data obtained from experiments were expressed as the mean ± S.E.M. and statistical differences between the treated and the vehicle groups of experiments were evaluated by ANOVA and Dunnett hoc tests.

[4] = Toxicity in treated infected mice (survival, spleen weight, serum biochemistry); assay type: in vivo; settings: infected BALB/c mice, 30 μmol kg−1 daily for 28 days, n = 5
Experimental: The survival of BALB/c mice infected with L. amazonensis untreated and treated during 28 days with the daily dose of 30 μmol kg^−1 with meglumine antimoniate, miltefosine and 10e (LASSBio-1736) was analyzed. Animal mortality was not observed for the groups treated with 10e and miltefosine, while 20% of death was identified from the 25th day of treatment with meglumine antimoniate (Fig. 11). After the end of treatment, the animal's toxicity was investigated looking for any alterations on spleen weight and on alanine aminotransferase (ALT), aspartate aminotransferase (AST), creatinine (CREA) and urea serum levels.
as §4

[5] = J774.A1 macrophages, 48 h incubation, MTT, 0.1–100 μM
[6] = J774.A1, L. braziliensis intracellular amastigotes, 24 h
[7] = J774.A1, L. braziliensis intracellular amastigotes
[8] = L. amazonensis amastigotes, ratio of IC50 values
[9] = J774.A1, L. amazonensis intracellular amastigotes, 24 h
[10] = J774.A1, L. amazonensis intracellular amastigotes

Compound	IC50 [1, 5] [µM]	IC50 [2, 6] [µM]	Emax [2, 7] [%]	Effect on the number of intracellular amastigotes [3]	IC50 [3, 9] [µM]	Emax [3, 10] [%]	other results
O=C(N/N=C/c1ccc([N+](=O)[O-])o1)NNC(=O)c1ccc(Cl)cc1 [LASSBio-1491 (9a), 4-chloro-phenylcarbamoyl-N-5-nitrofuranimine-urea]	> 100						
O=C(N/N=C/c1ccc([N+](=O)[O-])o1)NNC(=O)c1ccc(Cl)cc1Cl [LASSBio-1703 (10a), 2,4-dichloro-phenylcarbamoyl-N-5-nitrofuranimine-urea]	> 100						
O=C(N/N=C/c1ccccc1O)NNC(=O)c1ccc(Cl)cc1 [LASSBio-1704 (9b), 4-chloro-phenylcarbamoyl-N-2-hydroxyphenylimine-urea]	> 100	> 100	48.1 ± 4.5	decreased the number of intracellular amastigotes	85.3 ± 5	55.6 ± 1.4	Times less potent than miltefosine [3, 8]: ~4.0 times; Times less potent than pentamidine [3, 8]: about 2.5 times
O=C(N/N=C/c1ccccc1O)NNC(=O)c1ccc(Cl)cc1Cl [LASSBio-1705 (10b), 2,4-dichloro-phenylcarbamoyl-N-2-hydroxyphenylimine-urea]	78.1 ± 4.5						
O=C(N/N=C/c1ccc(O)cc1)NNC(=O)c1ccc(Cl)cc1 [LASSBio-1706 (9d), 4-chloro-phenylcarbamoyl-N-4-hydroxyphenylimine-urea]	86.2 ± 8.7	3.6 ± 0.6	70.4 ± 1.9	decreased the number of intracellular amastigotes	> 100		
O=C(N/N=C/c1ccc(O)cc1)NNC(=O)c1ccc(Cl)cc1Cl [LASSBio-1707 (10d), 2,4-dichloro-phenylcarbamoyl-N-4-hydroxyphenylimine-urea]	> 100	> 100		decreased the number of intracellular amastigotes	> 100	44.4 ± 0.2	
O=C(N/N=C/c1cccc(O)c1)NNC(=O)c1ccc(Cl)cc1Cl [LASSBio-1708 (10c), 2,4-dichloro-phenylcarbamoyl-N-3-hydroxyphenylimine-urea]	> 100	> 100		decreased the number of intracellular amastigotes	> 100	31 ± 1.7	
O=C(N/N=C/c1cccc(O)c1)NNC(=O)c1ccc(Cl)cc1 [LASSBio-1709 (9c), 4-chloro-phenylcarbamoyl-N-3-hydroxyphenylimine-urea]	85.2 ± 2.3						
O=C(N/N=C/c1ccc(C(F)(F)F)cc1)NNC(=O)c1ccc(Cl)cc1 [LASSBio-1737 (9e)]	> 100						
CCCCCCCCCCCCCCCCOP(=O)([O-])OCC[N+](C)(C)C [Miltefosine, reference compound]			84 ± 1.5			58.1 ± 4.9	IC50 ([1]; J774.A1, 48 h): > 100 µM; IC50 ([2]; J774.A1, 24 h): 32.1 ± 1.1 µM; Appearance of lesions on the first day after end of treatment (photographs) (L. amazonensis): complete healing of the nodules and ulcers; Lesion sizes of infected ear (L. amazonensis; 10e and meglumine antimoniate i.p., miltefosine p.o.): reduced the lesion sizes of infected ear; Parasite load in infected ear (L. amazonensis; limiting-dilution assay): decreased parasite load in infected ear; IC50 ([3]; J774.A1, 24 h): 22 ± 1.8 µM; Animal mortality [4]: not observed
N=C(N)c1ccc(OCCCCCOc2ccc(C(=N)N)cc2)cc1 [Pentamidine, reference compound]	35.5 ± 3.4	78.4 ± 4.7	61.7 ± 2.2		32.8 ± 4.6	59.1 ± 5.6	
meglumine antimoniate [reference compound]							Appearance of lesions on the first day after end of treatment (photographs) (L. amazonensis): the lesions showed an intense swelling and ulcerated; Animal mortality [4]: 20%
